# Laboratory results taken from patent US10548898B2, “Quinazoline compounds” (Gilead Sciences, Inc., priority 2014, dated 2020).
# Like-named read-outs stand apart in the source and are kept apart here.
# Columns and labels:
# Type in all cases: cell-based
# [1] = system: HIV-1 reverse transcriptase mutant K103N; assay: High throughput cytopathic effect assay in MT-4 cells, K103N mutant; conditions: for EC50: Human immunodeficiency virus 1, MT4, 120 h, read-out: MT4 EC50 (nM) against K103N; for FC against mutant K103N: fold change of MT4 EC50 versus w.t. assay 2
# Description: (§1) Compounds were screened in a miniaturized, high throughput cytopathic effect assay for activity against HIV-1 HBX2 (wild type) and HIV-1 reverse transcriptase mutants K103N and Y181C. In Tables 1 and 2 below. “w.t.” refers to results of the tested compounds run with the wildtype 1 and “w.t, assay 2” refers results of the tested compounds run with the wildtype on the same day as the testing of the compounds with the mutants. Thus, “w.t, assay 2” was run under the same conditions as the testing of the compounds with the mutants and provides a direct comparison with the results from the testing with the mutants.
# (§2) Ten-point serial dilutions of compounds with half-log step size were generated in DMSO. AZT ([…]) was used as the positive control and DMSO as the negative control. The Echo acoustic dispenser was used to deliver 200 nL of serially diluted compound into sterile 384 well tissue culture assay plates. Two million MT-4 cells were incubated with each of the 3 viruses at MOI of 0.0005 in separate 1 mL infection tubes for 1 hour at 37° C. The cells were diluted in cell culture medium (RPMI+10% FBS) to 50.000 cells/mL. The infected cells were added to 384 well assay plates containing serially dilute compounds. Assay plates were incubated for 5 days in a humidified incubator set at 37° C. and 5% CO2. To measure the cytopathic effect of HIV, 40 μL Cell TiterGlo was added to each well and the resulting luminescence signal is read with the Envision plate reader (Perkin Elmer). Data were normalized to positive and negative controls in each plate and expressed as % CPE Protection. EC50 values were defined as the compound concentration that caused a 50% decrease in luminescence signal, and were calculated by non-linear regression using Pipeline Pilot software by applying a four parameter fit equation (Accelrys, San Diego, Calif.).
# [2] = system: HIV-1 reverse transcriptase mutant Y181C; assay: High throughput cytopathic effect assay in MT-4 cells, Y181C mutant; conditions: for EC50: Human immunodeficiency virus 1, MT4, 120 h, read-out: MT4 EC50 (nM) against Y181C; for FC against mutant Y181C: fold change of MT4 EC50 versus w.t. assay 2
# Description: as §1, §2
# [3] = system: HIV-1 recombinant strain encoding reverse transcriptase mutation Y181C; assay: Resistance profile against HIV-1 RT mutants in MT-2 cells, Y181C; conditions: ratio of mean EC50 mutant/WT virus
# Experimental: (§3) Compounds were tested for antiviral activity against a panel of NNRTI resistant viruses. A panel of 8 clonal site-directed mutant viruses representing the major resistance development pathways against rilpivirine (“RPV”), efavirenz (“EFV”), and nevirapine (“NVP”), containing both single and double mutations within HIV-1 reverse transcriptase was employed. Further details and background can be found in Janssen et al. J. Med. Chem, 2005, 48, 1901-1909; Das et al., Proc. Nat. Acad. Sci., 2008, vol., 105, no. 5, 1466-1471; and Kuroda et al., Nature Chemistry, 2013, DOI: 10.1038/NCHEM. 1559. […] HIV-1 recombinant strains encoding reverse transcriptase mutations K103N, Y181C, Y188L, G190A, K103N/Y181C, L1001/Y181C, E138K or E138KIM 184V were constructed by site-directed mutagenesis. Wild-type and mutant viruses were prepared by transfecting infectious proviral HXB2-based cDNA clones into MT-2 cells and harvesting the cell supernatants. MT-2 cells were infected with wild-type and mutant HIV-1 strains at a multiplicity of infection (MOI) of 0.005 by gentle mixing for 3 hours at 37° C. and then added at a density of 16,667 cells per well in 50 μL complete RPMI cell culture media (containing 10% fetal bovine serum (FBS) and 10% penicillin-streptomycin) to 96-well plates containing 50 μL of a 3-fold serial dilution of test compounds in RPMI medium. After 5 days of incubation at 37° C. in a humidified incubator in the presence of 5% CO2. 100 μL of Cell Titer-Glo™ Reagent (Promega Biosciences, Inc., Madison, Wis.) was added to each well and the relative light units (RLU) measured on an Envision plate reader. […] The EC50 value was defined as the compound concentration inducing a 50% decrease in virus replication. Data analysis for the antiviral activity observed in MT-2 cells was performed using XL-Fit™ software (IDBS, Guildford, Surrey, UK) to calculate EC50 from an 8-point dose-response curve using the following equation:
# (§4) [formula] where y=virus inhibition, x=drug concentration, M=maximum inhibition, H=minimum inhibition and n=Hill coefficient, EC50 values (mean±standard deviation) were calculated from at least three independent experiments performed in triplicate. The level of resistance was calculated as a ratio of the mean EC50 for each mutant/WT virus. Results are disclosed in FIG. 1 and in Tables 3 and 4 below.
# [4] = system: HIV-1 recombinant strain encoding reverse transcriptase mutation K103N/Y181C; assay: Resistance profile against HIV-1 RT mutants in MT-2 cells, K103N/Y181C; conditions: ratio of mean EC50 mutant/WT virus
# Experimental: as §3, §4
# [5] = system: HIV-1 recombinant strain encoding reverse transcriptase mutation Y188L; assay: Resistance profile against HIV-1 RT mutants in MT-2 cells, Y188L; conditions: ratio of mean EC50 mutant/WT virus
# Experimental: as §3, §4
# HIV-1 HBX2 (wild type) = assay: High throughput cytopathic effect assay in MT-4 cells, wild type HIV-1
# Description: as §1, §2
# [6] = system: HIV-1 recombinant strain encoding reverse transcriptase mutation K103N; assay: Resistance profile against HIV-1 RT mutants in MT-2 cells, K103N; conditions: ratio of mean EC50 mutant/WT virus
# Experimental: as §3, §4
# [7] = system: HIV-1 recombinant strain encoding reverse transcriptase mutation L100I/Y181C; assay: Resistance profile against HIV-1 RT mutants in MT-2 cells, L100I/Y181C; conditions: ratio of mean EC50 mutant/WT virus
# Experimental: as §3, §4
# [8] = Human immunodeficiency virus 1, MT4, read-out: MT4 EC50 (nM) against w.t. assay 2
# [9] = Human immunodeficiency virus 1, MT4, 120 h, MT-4 cells, 5 days, cytopathic effect, Cell TiterGlo, read-out: MT4 EC50 (nM) against w.t.
compound,measurement,setting,value
"COc1cc(Nc2nc(N)c3cccc(-c4c(C)cc(/C=C/C#N)cc4C)c3n2)ccc1C#N [Compound 3, (E)-4-((4-Amino-8-(4-(2-cyanovinyl)-2,6-dimethylphenyl)quinazolin-2-yl)amino)-2-methoxybenzonitrile]",EC50,[1],12 nM
same,FC against mutant K103N,[1],0.9
same,EC50,[2],50.2 nM
same,FC against mutant Y181C,[2],3.9
same,Biology resistance panel-low throughput fold change (FC) Y181C,[3],3.4
same,Biology resistance panel-low throughput fold change (FC) K103N/Y181C,[4],3.4
same,Biology resistance panel-low throughput fold change (FC) Y188L,[5],13.7
same,EC50,HIV-1 HBX2 (wild type); [8],12.9 nM
same,Biology resistance panel-low throughput fold change (FC) K103N,[6],1.0
same,Biology resistance panel-low throughput fold change (FC) L100I/Y181C,[7],1.0
"Cc1cc(/C=C/C#N)cc(C)c1-c1cc(F)cc2cnc(Nc3ccc(C#N)cc3)nc12 [Compound 4, (E)-4-((8-(4-(2-Cyanovinyl)-2,6-dimethylphenyl)-6-fluoroquinazolin-2-yl)amino)benzonitrile]",EC50,[1],19.1 nM
same,FC against mutant K103N,[1],2.0
same,EC50,[2],47 nM
same,FC against mutant Y181C,[2],4.8
same,Biology resistance panel-low throughput fold change (FC) Y181C,[3],4.9
same,Biology resistance panel-low throughput fold change (FC) K103N/Y181C,[4],12.8
same,Biology resistance panel-low throughput fold change (FC) Y188L,[5],16.9
same,EC50,HIV-1 HBX2 (wild type); [9],9.2 nM
same,EC50,HIV-1 HBX2 (wild type); [8],9.8 nM
same,Biology resistance panel-low throughput fold change (FC) K103N,[6],1.4
same,Biology resistance panel-low throughput fold change (FC) L100I/Y181C,[7],5.4
"N#C/C=C/c1cc(F)c(-c2cccc3cnc(Nc4ccc(C#N)cc4)nc23)c(F)c1 [Compound 5, (E)-4-((8-(4-(2-Cyanovinyl)-2,6-difluorophenyl)quinazolin-2-yl)amino)benzonitrile]",EC50,[1],2.5 nM
same,FC against mutant K103N,[1],1.7
same,EC50,[2],12 nM
same,FC against mutant Y181C,[2],8.2
same,Biology resistance panel-low throughput fold change (FC) Y181C,[3],15.4
same,Biology resistance panel-low throughput fold change (FC) K103N/Y181C,[4],208.0
same,Biology resistance panel-low throughput fold change (FC) Y188L,[5],174.0
same,EC50,HIV-1 HBX2 (wild type); [9],1.3 nM
same,EC50,HIV-1 HBX2 (wild type); [8],1.5 nM
same,Biology resistance panel-low throughput fold change (FC) K103N,[6],1.6
same,Biology resistance panel-low throughput fold change (FC) L100I/Y181C,[7],18.9
"CNc1nc(Nc2ccc(C#N)cc2)nc2c(-c3c(C)cc(/C=C/C#N)cc3C)cccc12 [Compound 30, (E)-4-((8-(4-(2-Cyanovinyl)-2,6-dimethylphenyl)-4-(methylamino)quinazolin-2-yl)amino)benzonitrile]",EC50,[1],17 nM
same,FC against mutant K103N,[1],1.3
same,EC50,[2],55.6 nM
same,FC against mutant Y181C,[2],4.3
same,EC50,HIV-1 HBX2 (wild type); [9],15.9 nM
same,EC50,HIV-1 HBX2 (wild type); [8],13 nM
"CNc1nc(Nc2ccc(C#N)cn2)nc2c(-c3c(C)cc(/C=C/C#N)cc3C)cccc12 [Compound 31, (E)-6-((8-(4-(2-Cyanovinyl)-2,6-dimethylphenyl)-4-(methylamino)quinazolin-2-yl)amino)nicotinonitrile]",EC50,[1],17.6 nM
same,FC against mutant K103N,[1],2.1
same,EC50,[2],432 nM
same,FC against mutant Y181C,[2],50.5
same,EC50,HIV-1 HBX2 (wild type); [9],10.5 nM
same,EC50,HIV-1 HBX2 (wild type); [8],8.6 nM
"COc1cc(/C=C/C#N)cc(OC)c1-c1cccc2c(N)nc(Nc3ccc(C#N)cc3)nc12 [Compound 32, (E)-4-((4-Amino-8-(4-(2-cyanovinyl)-2,6-dimethoxyphenyl)quinazolin-2-yl)amino)benzonitrile]",EC50,[1],11.5 nM
same,FC against mutant K103N,[1],1.2
same,EC50,[2],10.5 nM
same,FC against mutant Y181C,[2],8.3
same,EC50,HIV-1 HBX2 (wild type); [9],1.9 nM
same,EC50,HIV-1 HBX2 (wild type); [8],1.3 nM
"COc1cc(/C=C/C#N)cc(OC)c1-c1cccc2cnc(Nc3ccc(C#N)cc3)nc12 [Compound 33, (E)-44-((8-(4-(2-Cyanovinyl)-2,6-dimethoxyphenyl)quinazolin-2-yl)amino)benzonitrile]",EC50,[1],3.2 nM
same,FC against mutant K103N,[1],2.1
same,EC50,[2],12.3 nM
same,FC against mutant Y181C,[2],7.9
same,EC50,HIV-1 HBX2 (wild type); [9],2.1 nM
same,EC50,HIV-1 HBX2 (wild type); [8],1.5 nM
"CCc1cc(/C=C/C#N)cc(CC)c1-c1cccc2c(N)nc(Nc3ccc(C#N)cc3)nc12 [Compound 35, (E)-4-((4-Amino-8-(4-(2-cyanovinyl)-2,6-diethylphenyl)quinazolin-2-yl)amino)benzonitrile]",EC50,[1],16.9 nM
same,FC against mutant K103N,[1],1.0
same,EC50,[2],38.6 nM
same,FC against mutant Y181C,[2],2.3
same,EC50,HIV-1 HBX2 (wild type); [9],12.8 nM
same,EC50,HIV-1 HBX2 (wild type); [8],16.8 nM
"CCc1cc(/C=C/C#N)cc(CC)c1-c1cccc2c(N)nc(Nc3ccc(C#N)cn3)nc12 [Compound 36, (E)-6-((4-Amino-8-(4-(2-cyanovinyl)-2,6-diethylphenyl)quinazolin-2-yl)amino)nicotinonitrile]",EC50,[1],10.1 nM
same,FC against mutant K103N,[1],1.0
same,EC50,[2],87.3 nM
same,FC against mutant Y181C,[2],8.3
same,EC50,HIV-1 HBX2 (wild type); [9],7.7 nM
same,EC50,HIV-1 HBX2 (wild type); [8],10.5 nM
"Cc1cc(/C=C/C#N)cc(C)c1-c1cccc2c(NC(N)=O)nc(Nc3ccc(C#N)cc3)nc12 [Compound 37, (E)-1-(2-((4-Cyanophenyl)amino)-8-(4-(2-cyanovinyl)-2,6-dimethylphenyl)quinazolin-4-yl)urea]",EC50,[1],7.8 nM
same,FC against mutant K103N,[1],1.2
same,EC50,[2],22.1 nM
same,FC against mutant Y181C,[2],3.3
same,EC50,HIV-1 HBX2 (wild type); [9],4.7 nM
same,EC50,HIV-1 HBX2 (wild type); [8],6.8 nM
"C/C(=C\C#N)c1cc(C)c(-c2cccc3c(N)nc(Nc4ccc(C#N)cc4)nc23)c(C)c1 [Compound 38, (E)-4-((4-Amino-8-(4-(1-cyanoprop-1-en-2-yl)-2,6-dimethylphenyl)quinazolin-2-yl)amino)benzonitrile]",EC50,[1],7 nM
same,FC against mutant K103N,[1],0.9
same,EC50,[2],18.6 nM
same,FC against mutant Y181C,[2],2.4
same,EC50,HIV-1 HBX2 (wild type); [9],6 nM
same,EC50,HIV-1 HBX2 (wild type); [8],7.9 nM
"C/C(=C/C#N)c1cc(C)c(-c2cccc3c(N)nc(Nc4ccc(C#N)cc4)nc23)c(C)c1 [Compound 39, (Z)-4-((4-Amino-8-(4-(1-cyanoprop-1-en-2-yl)-2,6-dimethylphenyl)quinazolin-2-yl)amino)benzonitrile]",EC50,[1],12.1 nM
same,FC against mutant K103N,[1],1.4
same,EC50,[2],27.2 nM
same,FC against mutant Y181C,[2],3.0
same,EC50,HIV-1 HBX2 (wild type); [9],5.9 nM
same,EC50,HIV-1 HBX2 (wild type); [8],8.9 nM
"Cc1cc(/C=C/C#N)cc(C)c1-c1cccc2c(=O)[nH]c(Nc3ccc(C#N)cc3)nc12 [Compound 41, (E)-4-((8-(4-(2-Cyanovinyl)-2,6-dimethylphenyl)-4-oxo-3,4-dihydroquinazolin-2-yl)amino)benzonitrile]",EC50,[1],15.7 nM
same,FC against mutant K103N,[1],1.6
same,EC50,[2],32.8 nM
same,FC against mutant Y181C,[2],3.4
same,EC50,HIV-1 HBX2 (wild type); [9],6.3 nM
same,EC50,HIV-1 HBX2 (wild type); [8],9.5 nM
